In brackets after ≈: the same amount, converted by molar mass.
How the values were obtained:
Enterococcus faecalis 25 = tested on: T1, Enterococcus faecalis 25; test: microbe, parasite or virus in culture; design: CLSI broth microdilution MIC in MHB-II; settings: Enterococcus faecalis, 25, 18 h, read-out: MIC
T1 construct: 25
Method: (§1) MICs were determined by a microdilution broth method as recommended by the CLSI with MHB-II. For MICs of stable analogues, a 2-fold dilution of each compound was prepared in DMSO at 100-fold of the final concentration. The strains were inoculated with 5 × 10^5 cfu/mL in 96-well plates (each 100 μL/well), and 1 μL of DMSO solutions of the samples were added (contained less than 1% DMSO). The plates were incubated at 37 °C for 18 h and then MICs were determined. MICs of stable analogues in Table 1 were the highest value in three trials. MICs in Supplementary Table 1 were determined in one trial.

Enterococcus faecalis 26 = tested on: T2, Enterococcus faecalis 26; test: microbe, parasite or virus in culture; design: CLSI broth microdilution MIC in MHB-II; settings: Enterococcus faecalis, 26, 18 h, read-out: MIC
T2 construct: 26
Method: as §1

Enterococcus faecium 2 = test: microbe, parasite or virus in culture; design: CLSI broth microdilution MIC in MHB-II; settings: Enterococcus faecium, 2, 18 h, read-out: MIC
Method: as §1

Enterococcus faecium 5 = test: microbe, parasite or virus in culture; design: CLSI broth microdilution MIC in MHB-II; settings: Enterococcus faecium, 5, 18 h, read-out: MIC
Method: as §1

Enterococcus faecium 7 = test: microbe, parasite or virus in culture; design: CLSI broth microdilution MIC in MHB-II; settings: Enterococcus faecium, 7, 18 h, read-out: MIC
Method: as §1

Enterococcus faecium 9 = test: microbe, parasite or virus in culture; design: CLSI broth microdilution MIC in MHB-II; settings: Enterococcus faecium, 9, 18 h, read-out: MIC
Method: as §1

[1] = tested on: T3, Staphylococcus aureus #1958; test: microbe, parasite or virus in culture; design: CLSI broth microdilution MIC in MHB-II; settings: Staphylococcus aureus, 18 h, read-out: MIC
T3 construct: #1958
Method: as §1

[2] = tested on: T4, Staphylococcus aureus #2071; test: microbe, parasite or virus in culture; design: CLSI broth microdilution MIC in MHB-II; settings: Staphylococcus aureus, 18 h, read-out: MIC
T4 construct: #2071
Method: as §1

[3] = tested on: T5, Staphylococcus aureus #2310; test: microbe, parasite or virus in culture; design: CLSI broth microdilution MIC in MHB-II; settings: Staphylococcus aureus, 18 h, read-out: MIC
T5 construct: #2310
Method: as §1

[4] = tested on: T6, Staphylococcus aureus #2334; test: microbe, parasite or virus in culture; design: CLSI broth microdilution MIC in MHB-II; settings: Staphylococcus aureus, 18 h, read-out: MIC
T6 construct: #2334
Method: as §1

[5] = tested on: T7, Staphylococcus aureus #2932; test: microbe, parasite or virus in culture; design: CLSI broth microdilution MIC in MHB-II; settings: Staphylococcus aureus, 18 h, read-out: MIC
T7 construct: #2932
Method: as §1

[6] = tested on: T8, Staphylococcus aureus #2933; test: microbe, parasite or virus in culture; design: CLSI broth microdilution MIC in MHB-II; settings: Staphylococcus aureus, 18 h, read-out: MIC
T8 construct: #2933
Method: as §1

MraYSA (S. aureus MraY) = MraYSA (S. aureus MraY) (Staphylococcus aureus, UniProt Q2FZ93); test: fluorescence assay of dansylated lipid I formation; assay type: biochemical
in vitro = test: in vitro; design: WST-8 cell viability assay in HepG2 cells; settings: human, hepg2 cells; read-out: IC50
Method: Cells were regularly passed to maintain exponential growth. HepG2 cells were sowed by 1.0 × 10^4 cells for each well in 96-well plate and cultured at 37 °C under 5% CO2 in air for 24 h. The cells were treated with a solution of test compounds in DMSO at various concentration and incubated at 37 °C under 5% CO2 in air for 24 h. After that, the WST-8 (Dojindo) cell proliferation assay was used. Cell viability was indicated as a percentage of the negative control (cells treated with DMSO only) and that value was fixed at 100%.

Sequence of MraYSA (S. aureus MraY) (Q2FZ93 whole entry): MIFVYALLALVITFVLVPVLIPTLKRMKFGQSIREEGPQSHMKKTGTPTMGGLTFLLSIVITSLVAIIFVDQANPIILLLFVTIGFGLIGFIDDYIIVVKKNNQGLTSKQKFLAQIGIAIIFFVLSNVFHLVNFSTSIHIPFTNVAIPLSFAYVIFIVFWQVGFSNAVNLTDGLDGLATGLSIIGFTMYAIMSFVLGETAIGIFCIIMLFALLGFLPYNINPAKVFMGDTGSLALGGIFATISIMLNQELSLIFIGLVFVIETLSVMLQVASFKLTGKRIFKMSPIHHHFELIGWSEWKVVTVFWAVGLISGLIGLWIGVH

Structure (SMILES) | MIC (Enterococcus faecalis 25) | MIC (Enterococcus faecalis 26) | MIC (Enterococcus faecium 2) | MIC (Enterococcus faecium 5) | MIC (Enterococcus faecium 7) | MIC (Enterococcus faecium 9) | MIC [1] | MIC [2] | MIC [3] | MIC [4] | MIC [5] | MIC [6] | IC50 (MraYSA (S. aureus MraY)) | CC50 at 24 h (in vitro)
C[C@H]1COc2c(N3CCN(C)CC3)c(F)cc3c(=O)c(C(=O)O)cn1c23 [levofloxacin] | 0.5 µg/mL (≈ 1.38 µM) | 0.5 µg/mL (≈ 1.38 µM) | > 32 µg/mL | 32 µg/mL (≈ 88.6 µM) | 0.5 µg/mL (≈ 1.38 µM) | > 32 µg/mL | > 32 µg/mL | 0.13 µg/mL (≈ 0.36 µM) | > 32 µg/mL | > 32 µg/mL | > 32 µg/mL | > 32 µg/mL |  | 
CCCCCCCCCCCCCCCC(=O)N[C@@H](CCCNC(=N)N)C(=O)Nc1cccc(CN[C@H](C(=O)O)[C@H](O[C@@H]2O[C@H](CN)[C@@H](O)[C@H]2O)[C@H]2O[C@@H](n3ccc(=O)[nH]c3=O)[C@H](O)[C@@H]2O)c1 [compound 8, analogue 8] | 0.5 µg/mL (≈ 0.527 µM) | 0.25 µg/mL (≈ 0.264 µM) | 2 µg/mL (≈ 2.11 µM) | 1 µg/mL (≈ 1.05 µM) | 1 µg/mL (≈ 1.05 µM) | 1 µg/mL (≈ 1.05 µM) | 2 µg/mL (≈ 2.11 µM) | 64 µg/mL (≈ 67.5 µM) | 2 µg/mL (≈ 2.11 µM) |  | 2 µg/mL (≈ 2.11 µM) | 1 µg/mL (≈ 1.05 µM) | 0.0018 µM | 23 µM
CCCCCCCCCCCCCCCC(=O)N[C@@H](CCCNC(=N)N)C(=O)NCc1ccc(CN[C@H](C(=O)O)[C@H](O[C@@H]2O[C@H](CN)[C@@H](O)[C@H]2O)[C@H]2O[C@@H](n3ccc(=O)[nH]c3=O)[C@H](O)[C@@H]2O)cc1 [compound 3, analogue 3] | 0.13 µg/mL (≈ 0.135 µM) | 0.13 µg/mL (≈ 0.135 µM) | 1 µg/mL (≈ 1.04 µM) | 1 µg/mL (≈ 1.04 µM) | 1 µg/mL (≈ 1.04 µM) | 0.5 µg/mL (≈ 0.52 µM) | 2 µg/mL (≈ 2.08 µM) |  | 2 µg/mL (≈ 2.08 µM) | 1 µg/mL (≈ 1.04 µM) | 2 µg/mL (≈ 2.08 µM) | 1 µg/mL (≈ 1.04 µM) | 0.004 µM | 18 µM
CCCCCCCCCCCCCCCC(=O)N[C@@H](CCCCN)C(=O)NCc1cccc(CN[C@H](C(=O)O)[C@H](O[C@@H]2O[C@H](CN)[C@@H](O)[C@H]2O)[C@H]2O[C@@H](n3ccc(=O)[nH]c3=O)[C@H](O)[C@@H]2O)c1 [compound 2, analogue 2] | 0.25 µg/mL (≈ 0.268 µM) | 0.13 µg/mL (≈ 0.139 µM) | 1 µg/mL (≈ 1.07 µM) | 1 µg/mL (≈ 1.07 µM) | 2 µg/mL (≈ 2.14 µM) | 0.5 µg/mL (≈ 0.535 µM) | 1 µg/mL (≈ 1.07 µM) | 1 µg/mL (≈ 1.07 µM) | 2 µg/mL (≈ 2.14 µM) | 1 µg/mL (≈ 1.07 µM) | 1 µg/mL (≈ 1.07 µM) | 0.5 µg/mL (≈ 0.535 µM) | 0.0059 µM | 16 µM
CCCCCCCCCCCCCCCC(=O)N[C@@H](CCCNC(=N)N)C(=O)NCc1cccc(CN[C@H](C(=O)O)[C@H](O[C@@H]2O[C@H](CN)[C@@H](O)[C@H]2O)[C@H]2O[C@@H](n3ccc(=O)[nH]c3=O)[C@H](O)[C@@H]2O)c1 [compound 4, analogue 4] | 0.25 µg/mL (≈ 0.26 µM) | 0.25 µg/mL (≈ 0.26 µM) | 2 µg/mL (≈ 2.08 µM) | 1 µg/mL (≈ 1.04 µM) | 1 µg/mL (≈ 1.04 µM) | 0.5 µg/mL (≈ 0.52 µM) | 2 µg/mL (≈ 2.08 µM) | 1 µg/mL (≈ 1.04 µM) | 2 µg/mL (≈ 2.08 µM) | 2 µg/mL (≈ 2.08 µM) | 2 µg/mL (≈ 2.08 µM) | 1 µg/mL (≈ 1.04 µM) | 0.005 µM | 19 µM

Source: article PMC11178787, “Development of a natural product optimization strategy for inhibitors against MraY, a promising antibacterial target” (Nature Communications, 2024)
